The source made the active and inactive calls. How the calls were made is not given here.
Tested on: CCRIS mutagenicity, Ames/micronucleus/aberration tests
Experiment: CCRIS mutagenicity studies
[1] = Test System: AMES SALMONELLA TYPHIMURIUM, Strain/Indicator: TA98, Metabolic Activation: NONE, Method: STANDARD PLATE
[2] = Test System: AMES SALMONELLA TYPHIMURIUM, Strain/Indicator: TA98, Metabolic Activation: RAT, LIVER, S-9, AROCLOR 1254, Method: STANDARD PLATE
[3] = Test System: AMES SALMONELLA TYPHIMURIUM, Strain/Indicator: TA100, Metabolic Activation: NONE, Method: STANDARD PLATE
[4] = Test System: AMES SALMONELLA TYPHIMURIUM, Strain/Indicator: TA100, Metabolic Activation: RAT, LIVER, S-9, AROCLOR 1254, Method: STANDARD PLATE
[5] = Test System: AMES SALMONELLA TYPHIMURIUM, Strain/Indicator: TA1538, Metabolic Activation: NONE, Method: STANDARD PLATE
[6] = Test System: AMES SALMONELLA TYPHIMURIUM, Strain/Indicator: TA1538, Metabolic Activation: RAT, LIVER, S-9, AROCLOR 1254, Method: STANDARD PLATE
[7] = Test System: AMES SALMONELLA TYPHIMURIUM, Strain/Indicator: TA1535, Metabolic Activation: NONE, Method: STANDARD PLATE

N#C/C=C/C#N
mutagenic call (End Point: IN VITRO CHROMOSOMAL ABERRATIONS, Test System: CHO-LB CELLS, Metabolic Activation: NONE): active; positive | mutagenic call (End Point: IN VITRO CHROMOSOMAL ABERRATIONS, Test System: CHO-LB CELLS, Metabolic Activation: RAT, LIVER, S-9, AROCLOR 1254): inactive; negative | mutagenic call (Test System: AMES SALMONELLA TYPHIMURIUM, Strain/Indicator: TA97, Metabolic Activation: HAMSTER, LIVER, S-9, AROCLOR 1254 (10%), Method: PREINCUBATION): inactive; negative | mutagenic call (Test System: AMES SALMONELLA TYPHIMURIUM, Strain/Indicator: TA97, Metabolic Activation: HAMSTER, LIVER, S-9, AROCLOR 1254 (30%), Method: PREINCUBATION): inactive; negative | mutagenic call (Test System: AMES SALMONELLA TYPHIMURIUM, Strain/Indicator: TA97, Metabolic Activation: NONE, Method: PREINCUBATION): inactive; negative | mutagenic call (Test System: AMES SALMONELLA TYPHIMURIUM, Strain/Indicator: TA97, Metabolic Activation: RAT, LIVER, S-9, AROCLOR 1254 (10 OR 30%), Method: PREINCUBATION): inactive; negative | mutagenic call (Test System: AMES SALMONELLA TYPHIMURIUM, Strain/Indicator: TA98, Metabolic Activation: HAMSTER, LIVER, S-9, AROCLOR 1254 (10%), Method: PREINCUBATION): inactive; negative | mutagenic call (Test System: AMES SALMONELLA TYPHIMURIUM, Strain/Indicator: TA98, Metabolic Activation: HAMSTER, LIVER, S-9, AROCLOR 1254 (30%), Method: PREINCUBATION): inactive; negative | mutagenic call (Test System: AMES SALMONELLA TYPHIMURIUM, Strain/Indicator: TA98, Metabolic Activation: NONE, Method: PREINCUBATION): inactive; negative | mutagenic call (Test System: AMES SALMONELLA TYPHIMURIUM, Strain/Indicator: TA98, Metabolic Activation: RAT, LIVER, S-9, AROCLOR 1254 (10%), Method: PREINCUBATION): inactive; negative | mutagenic call (Test System: AMES SALMONELLA TYPHIMURIUM, Strain/Indicator: TA98, Metabolic Activation: RAT, LIVER, S-9, AROCLOR 1254 (30%), Method: PREINCUBATION): inactive; negative | mutagenic call (Test System: AMES SALMONELLA TYPHIMURIUM, Strain/Indicator: TA98, Metabolic Activation: RAT, LIVER, S-9, FUMARONITRILE (AUTOINDUCTION), Method: PREINCUBATION): inactive; negative | mutagenic call (Test System: AMES SALMONELLA TYPHIMURIUM, Strain/Indicator: TA98, Metabolic Activation: RAT, LIVER, S-9, PHENOBARBITAL, Method: PREINCUBATION): inactive; negative | mutagenic call (Test System: AMES SALMONELLA TYPHIMURIUM, Strain/Indicator: TA100, Metabolic Activation: HAMSTER, LIVER, S-9, AROCLOR 1254 (10%), Method: PREINCUBATION): inactive; negative | mutagenic call (Test System: AMES SALMONELLA TYPHIMURIUM, Strain/Indicator: TA100, Metabolic Activation: HAMSTER, LIVER, S-9, AROCLOR 1254 (30%), Method: PREINCUBATION): inactive; negative | mutagenic call (Test System: AMES SALMONELLA TYPHIMURIUM, Strain/Indicator: TA100, Metabolic Activation: NONE, Method: PREINCUBATION): inactive; negative | mutagenic call (Test System: AMES SALMONELLA TYPHIMURIUM, Strain/Indicator: TA100, Metabolic Activation: RAT, LIVER, S-9, AROCLOR 1254 (10%), Method: PREINCUBATION): inactive; negative | mutagenic call (Test System: AMES SALMONELLA TYPHIMURIUM, Strain/Indicator: TA100, Metabolic Activation: RAT, LIVER, S-9, AROCLOR 1254 (30%), Method: PREINCUBATION): inactive; negative | mutagenic call (Test System: AMES SALMONELLA TYPHIMURIUM, Strain/Indicator: TA100, Metabolic Activation: RAT, LIVER, S-9, FUMARONITRILE (AUTOINDUCTION), Method: PREINCUBATION): inactive; negative | mutagenic call (Test System: AMES SALMONELLA TYPHIMURIUM, Strain/Indicator: TA100, Metabolic Activation: RAT, LIVER, S-9, PHENOBARBITAL, Method: PREINCUBATION): inactive; negative | mutagenic call (Test System: AMES SALMONELLA TYPHIMURIUM, Strain/Indicator: TA1535, Metabolic Activation: HAMSTER, LIVER, S-9, AROCLOR 1254 (10%), Method: PREINCUBATION): inactive; negative | mutagenic call (Test System: AMES SALMONELLA TYPHIMURIUM, Strain/Indicator: TA1535, Metabolic Activation: HAMSTER, LIVER, S-9, AROCLOR 1254 (30%), Method: PREINCUBATION): inactive; negative | mutagenic call (Test System: AMES SALMONELLA TYPHIMURIUM, Strain/Indicator: TA1535, Metabolic Activation: NONE, Method: PREINCUBATION): inactive; negative | mutagenic call (Test System: AMES SALMONELLA TYPHIMURIUM, Strain/Indicator: TA1535, Metabolic Activation: RAT, LIVER, S-9, AROCLOR 1254 (10 OR 30%), Method: PREINCUBATION): inactive; negative

Nc1ccc2cc(S(=O)(=O)O)c(N=Nc3ccc(N=Nc4ccccc4)cc3OCCO)c(O)c2c1
mutagenic call [1]: inactive; negative | mutagenic call [2]: active; positive | mutagenic call [3]: inactive; negative | mutagenic call [4]: active; positive | mutagenic call [5]: inactive; negative | mutagenic call [6]: active; positive

O=C(O)CCCC[C@@H]1SC[C@@H]2NC(=O)N[C@@H]21
mutagenic call [1]: inactive; negative | mutagenic call [2]: inactive; negative | mutagenic call [3]: inactive; negative | mutagenic call [4]: inactive; negative | mutagenic call [7]: inactive; negative | mutagenic call (Test System: AMES SALMONELLA TYPHIMURIUM, Strain/Indicator: TA1535, Metabolic Activation: RAT, LIVER, S-9, AROCLOR 1254, Method: STANDARD PLATE): inactive; negative | mutagenic call (Test System: AMES SALMONELLA TYPHIMURIUM, Strain/Indicator: TA1537, Metabolic Activation: NONE, Method: STANDARD PLATE): inactive; negative | mutagenic call (Test System: AMES SALMONELLA TYPHIMURIUM, Strain/Indicator: TA1537, Metabolic Activation: RAT, LIVER, S-9, AROCLOR 1254, Method: STANDARD PLATE): inactive; negative | mutagenic call [5]: inactive; negative | mutagenic call [6]: inactive; negative | mutagenic call (Test System: E. COLI, Strain/Indicator: WP2, Metabolic Activation: NONE, Method: STANDARD PLATE): inactive; negative | mutagenic call (Test System: E. COLI, Strain/Indicator: WP2, Metabolic Activation: RAT, LIVER, S-9, AROCLOR 1254, Method: STANDARD PLATE): inactive; negative

CC(C)CCC[C@@H](C)[C@H]1CC[C@H]2[C@@H]3C(=O)C=C4C[C@@H](O)CC[C@]4(C)[C@H]3CC[C@]12C
mutagenic call (Test System: AMES SALMONELLA TYPHIMURIUM, Strain/Indicator: TA97, Metabolic Activation: NONE, Method: STANDARD PLATE): inactive; negative | mutagenic call [1]: inactive; negative | mutagenic call [3]: inactive; negative | mutagenic call (Test System: AMES SALMONELLA TYPHIMURIUM, Strain/Indicator: TA102, Metabolic Activation: NONE, Method: STANDARD PLATE): inactive; negative | mutagenic call [7]: inactive; negative

COc1ccc([N+](=O)[O-])c2c(NCCCN(C)C)c3ccccc3nc12
mutagenic call [1]: active; positive | mutagenic call [3]: inactive; negative

c1cc2c3c(c1)C1NC1c1cccc(c1-3)C1NC21 (stereo not given)
mutagenic call [3]: active; positive

Cn1c(N=[N+]=[N-])nc2ccc3ccccc3c21
mutagenic call (Test System: AMES SALMONELLA TYPHIMURIUM, Strain/Indicator: TA98(1,8-DNP6), Metabolic Activation: NONE, Method: STANDARD PLATE): active; positive | mutagenic call [1]: active; positive

[O-][n+]1cccc2c1[C@H]1O[C@H]1C=C2
mutagenic call [3]: inactive; negative | mutagenic call (Test System: AMES SALMONELLA TYPHIMURIUM, Strain/Indicator: TA100, Metabolic Activation: RAT, LIVER, S-9, AROCLOR 1254 (10 OR 20%), Method: STANDARD PLATE): inactive; negative

O[C@H]1C=Cc2c(ccc3cccnc23)[C@@H]1O
mutagenic call [4]: active; positive

O=C1C(=O)c2c(ccc3ccccc23)-c2ccccc21
mutagenic call [1]: inactive; negative | mutagenic call [4]: inactive; negative

C=C1C[C@@]23CC[C@H]4[C@@](C)(CCC[C@@]4(C)C(=O)O)[C@@H]2CC[C@@H]1C3
mutagenic call (Test System: AMES SALMONELLA TYPHIMURIUM, Strain/Indicator: TM677, Metabolic Activation: RAT, LIVER, S-9, AROCLOR 1254, Method: PREINCUBATION): inactive; negative

CC1(C)SC2[C@H](NC(=O)C(N)c3ccccc3)C(=O)N2[C@H]1C(=O)O.[Cl][Pt].[H+] (stereo not given in full)
mutagenic call (Test System: MOUSE LYMPHOMA, Strain/Indicator: L5178Y(LY-R) (HGPRT)/6-THIOGUANINE, Metabolic Activation: NONE): inactive; negative

NCCCCC(N)C(=O)O (stereo not given)
mutagenic call (Test System: AMES SALMONELLA TYPHIMURIUM, Strain/Indicator: TA98, Metabolic Activation: RAT LIVER S-9, CHLOROPHENE, Method: STANDARD PLATE (COMPOUND HEATED AT 250 DEGREES CELSIUS FOR 20 MIN)): active; positive
